Source: patent US20120172408A1, “ACTIVE INGREDIENT COMPRISING INDOCYANINE GREEN AND/OR INFRACYANINE GREEN” (A.R.C. LASER GMBH, priority 2011, published 2012)

System: microscopic organisms
Test: Antimicrobial effect of ICG under irradiation with light (photodynamic), infections on gingiva and teeth
Settings: more particularly laser light, wavelength 780 to 830 nm

CC1(C)C(/C=C/C=C/C=C/C=C2\N(CCCCS(=O)(=O)O)c3ccc4ccccc4c3C2(C)C)=[N+](CCCCS(=O)(=O)[O-])c2ccc3ccccc3c21 [ICG, Indocyanine green]
effect against microscopic organisms, more particularly an antimicrobial effect: outstanding effect
